Assay results: patent US6706740B2, “Fungicidal heterocyclic aromatic amides and their compositions, methods of use and preparation” (Dow AgroSciences LLC, priority 1999, dated 2004)

Tested on: Magnaporthe grisea (Pyricularia oryzae—PYRIOR)
Assay: microbe, parasite or virus in culture
Type: cell-based
Conditions: Pyricularia oryzae, read-out: PYRIOR in vitro Growth Inhibition
Compound `CC(C)C(=O)O[C@H]1[C@H](C)OC(=O)[C@@H](NC(=O)c2cnn(C)c2O)COC(=O)[C@@H]1Cc1ccccc1` [Compound 556] has an inhibition at 25 ppm of under 80%. With `COc1ccnc(C(=O)Nc2ccc(Oc3ccc(C(F)(F)F)cc3)cc2)c1OS(C)(=O)=O` [Compound 723] the inhibition at 25 ppm was under 80%. Work on `COc1ccnc(C(=O)N[C@H]2COC(=O)[C@H](Cc3ccccc3)[C@@H](OC(=O)C(C)C)[C@H](C)OC2=O)c1OC(=O)C(C)C` [Compound 602] yielded an inhibition at 25 ppm of under 80%.

Tested on: Rhizoctonia solani (RHIZSO)
Assay: microbe, parasite or virus in culture
Type: cell-based
Conditions: Rhizoctonia solani, read-out: RHIZSO in vitro Growth Inhibition
`CC(C)C(=O)O[C@H]1[C@H](C)OC(=O)[C@@H](NC(=O)c2cnn(C)c2O)COC(=O)[C@@H]1Cc1ccccc1` [Compound 556] gave an inhibition at 25 ppm of under 80%. For `COc1ccnc(C(=O)Nc2ccc(Oc3ccc(C(F)(F)F)cc3)cc2)c1OS(C)(=O)=O` [Compound 723], the inhibition at 25 ppm was under 80%. Work on `COc1ccnc(C(=O)N[C@H]2COC(=O)[C@H](Cc3ccccc3)[C@@H](OC(=O)C(C)C)[C@H](C)OC2=O)c1OC(=O)C(C)C` [Compound 602] yielded an inhibition at 25 ppm of under 80%.

Tested on: Mycosphaerella graminicola (Septoria tritici—SEPTTR)
Assay: In vitro fungal growth inhibition, Mycosphaerella graminicola (SEPTTR)
Type: cell-based
Conditions: Zymoseptoria tritici; 25 ppm in growth medium; read-out: SEPTTR in vitro Growth Inhibition
`COc1ccnc(C(=O)Nc2ccc(Oc3ccc(C(F)(F)F)cc3)cc2)c1OS(C)(=O)=O` [Compound 723] gave an inhibition at 25 ppm of under 80%. In the case of `COc1ccnc(C(=O)N[C@H]2COC(=O)[C@H](Cc3ccccc3)[C@@H](OC(=O)C(C)C)[C@H](C)OC2=O)c1OC(=O)C(C)C` [Compound 602], the inhibition at 25 ppm is reported as under 80%.

Same assay, conditions: Zymoseptoria tritici; 25 ppm in the growth medium; read-out: SEPTTR in vitro Growth Inhibition
With `CC(C)C(=O)O[C@H]1[C@H](C)OC(=O)[C@@H](NC(=O)c2cnn(C)c2O)COC(=O)[C@@H]1Cc1ccccc1` [Compound 556] the inhibition at 25 ppm was under 80%.

Tested on: Stagonospora nodorum (Leptosphaeria nodorum—LEPTNO)
Assay: In vitro fungal growth inhibition, Stagonospora nodorum (LEPTNO)
Type: cell-based
Conditions: Leptosphaeria; 25 ppm in growth medium; read-out: LEPTNO in vitro Growth Inhibition
With `COc1ccnc(C(=O)Nc2ccc(Oc3ccc(C(F)(F)F)cc3)cc2)c1OS(C)(=O)=O` [Compound 723] the inhibition at 25 ppm was under 80%. In the case of `COc1ccnc(C(=O)N[C@H]2COC(=O)[C@H](Cc3ccccc3)[C@@H](OC(=O)C(C)C)[C@H](C)OC2=O)c1OC(=O)C(C)C` [Compound 602], the inhibition at 25 ppm is reported as over 80%.

Same assay, conditions: Leptosphaeria; 25 ppm in the growth medium; read-out: LEPTNO in vitro Growth Inhibition
Compound `CC(C)C(=O)O[C@H]1[C@H](C)OC(=O)[C@@H](NC(=O)c2cnn(C)c2O)COC(=O)[C@@H]1Cc1ccccc1` [Compound 556] has an inhibition at 25 ppm of under 80%.

Tested on: Ustilago maydis (USTIMA)
Assay: microbe, parasite or virus in culture
Type: cell-based
Conditions: Mycosarcoma maydis, read-out: USTIMA in vitro Growth Inhibition
`CC(C)C(=O)O[C@H]1[C@H](C)OC(=O)[C@@H](NC(=O)c2cnn(C)c2O)COC(=O)[C@@H]1Cc1ccccc1` [Compound 556] showed an inhibition at 25 ppm of under 80%. `COc1ccnc(C(=O)Nc2ccc(Oc3ccc(C(F)(F)F)cc3)cc2)c1OS(C)(=O)=O` [Compound 723] gave an inhibition at 25 ppm of under 80%. In the case of `COc1ccnc(C(=O)N[C@H]2COC(=O)[C@H](Cc3ccccc3)[C@@H](OC(=O)C(C)C)[C@H](C)OC2=O)c1OC(=O)C(C)C` [Compound 602], the inhibition at 25 ppm is reported as under 80%.

Tested on: Phytophthora infestans (PHYTIN)
Assay: microbe, parasite or virus in culture
Type: cell-based
Conditions: Phytophthora infestans, read-out: PHYTIN in vitro Growth Inhibition
`CC(C)C(=O)O[C@H]1[C@H](C)OC(=O)[C@@H](NC(=O)c2cnn(C)c2O)COC(=O)[C@@H]1Cc1ccccc1` [Compound 556] showed an inhibition at 25 ppm of over 80%. In the case of `COc1ccnc(C(=O)Nc2ccc(Oc3ccc(C(F)(F)F)cc3)cc2)c1OS(C)(=O)=O` [Compound 723], the inhibition at 25 ppm is reported as under 80%. For `COc1ccnc(C(=O)N[C@H]2COC(=O)[C@H](Cc3ccccc3)[C@@H](OC(=O)C(C)C)[C@H](C)OC2=O)c1OC(=O)C(C)C` [Compound 602], the inhibition at 25 ppm was under 80%.

Tested on: Phytophthora infestans—PHYTIN
Assay: whole plant or invertebrate
Type: in vivo
Conditions: Phytophthora, in Solanum lycopersicum, 24 h, read-out: PHYTIN in vivo 1 Day Protectant
`CC(C)C(=O)O[C@H]1[C@H](C)OC(=O)[C@@H](NC(=O)c2cnn(C)c2O)COC(=O)[C@@H]1Cc1ccccc1` [Compound 556] showed a pest or weed control at 100 ppm of under 25%. For `COc1ccnc(C(=O)Nc2ccc(Oc3ccc(C(F)(F)F)cc3)cc2)c1OS(C)(=O)=O` [Compound 723], the pest or weed control at 100 ppm was 25 to 74%. In the case of `COc1ccnc(C(=O)N[C@H]2COC(=O)[C@H](Cc3ccccc3)[C@@H](OC(=O)C(C)C)[C@H](C)OC2=O)c1OC(=O)C(C)C` [Compound 602], the pest or weed control at 100 ppm is reported as under 25%.

Tested on: Puccinia recondita—PUCCRT
Assay: Brown Rust of Wheat, in vivo whole plant, 24 Hour Protectant
Conditions: Puccinia; 100 ppm spray, wheat, 24 hour protectant, % control of fungal infection vs untreated plants; read-out: PUCCRT in vivo 1 Day Protectant
`COc1ccnc(C(=O)Nc2ccc(Oc3ccc(C(F)(F)F)cc3)cc2)c1OS(C)(=O)=O` [Compound 723] showed a pest or weed control at 100 ppm of 25 to 74%.

Same assay, conditions: Puccinia; wheat plants sprayed at 100 ppm, inoculated after 24 hours; control of fungal infection vs untreated plants; read-out: PUCCRT in vivo 1 Day Protectant
Work on `CC(C)C(=O)O[C@H]1[C@H](C)OC(=O)[C@@H](NC(=O)c2cnn(C)c2O)COC(=O)[C@@H]1Cc1ccccc1` [Compound 556] yielded a pest or weed control at 100 ppm of 25 to 74%.

Tested on: Erysiphe graminis—ERYSGT
Assay: Powdery Mildew of Wheat, in vivo whole plant, 24 Hour Protectant
Conditions: Erysiphe; 100 ppm spray, wheat, 24 hour protectant, % control of fungal infection vs untreated plants; read-out: ERYSGT in vivo 1 Day Protectant
Compound `COc1ccnc(C(=O)Nc2ccc(Oc3ccc(C(F)(F)F)cc3)cc2)c1OS(C)(=O)=O` [Compound 723] has a pest or weed control at 100 ppm of under 25%. `COc1ccnc(C(=O)N[C@H]2COC(=O)[C@H](Cc3ccccc3)[C@@H](OC(=O)C(C)C)[C@H](C)OC2=O)c1OC(=O)C(C)C` [Compound 602] showed a pest or weed control at 100 ppm of under 25%.

Same assay, conditions: Erysiphe; wheat plants sprayed at 100 ppm, inoculated after 24 hours; control of fungal infection vs untreated plants; read-out: ERYSGT in vivo 1 Day Protectant
For `CC(C)C(=O)O[C@H]1[C@H](C)OC(=O)[C@@H](NC(=O)c2cnn(C)c2O)COC(=O)[C@@H]1Cc1ccccc1` [Compound 556], the pest or weed control at 100 ppm was under 25%.

Tested on: Septoria tritici—SEPTTR
Assay: Leaf Blotch of Wheat, in vivo whole plant, 24 Hour Protectant
Conditions: Zymoseptoria tritici, 24 h, wheat plants sprayed at 100 ppm, inoculated after 24 hours; control of fungal infection vs untreated plants; read-out: SEPTTR in vivo 1 Day Protectant
In the case of `CC(C)C(=O)O[C@H]1[C@H](C)OC(=O)[C@@H](NC(=O)c2cnn(C)c2O)COC(=O)[C@@H]1Cc1ccccc1` [Compound 556], the pest or weed control at 100 ppm is reported as under 25%.

Tested on: Leptosphaeria nodorum—LEPTNO
Assay: Glume Blotch of Wheat, in vivo whole plant, 24 Hour Protectant
Conditions: Leptosphaeria; 100 ppm spray, wheat, 24 hour protectant, % control of fungal infection vs untreated plants; read-out: LEPTNO in vivo 1 Day Protectant
With `COc1ccnc(C(=O)Nc2ccc(Oc3ccc(C(F)(F)F)cc3)cc2)c1OS(C)(=O)=O` [Compound 723] the pest or weed control at 100 ppm was 25 to 74%.

Same assay, conditions: Leptosphaeria; wheat plants sprayed at 100 ppm, inoculated after 24 hours; control of fungal infection vs untreated plants; read-out: LEPTNO in vivo 1 Day Protectant
Compound `CC(C)C(=O)O[C@H]1[C@H](C)OC(=O)[C@@H](NC(=O)c2cnn(C)c2O)COC(=O)[C@@H]1Cc1ccccc1` [Compound 556] has a pest or weed control at 100 ppm of 25 to 74%.

Tested on: not given
Assay: not given
Conditions: not given
In the case of `CC(C)C(=O)O[C@H]1[C@H](C)OC(=O)[C@@H](NC(=O)c2cnn(C)c2O)COC(=O)[C@@H]1Cc1ccccc1` [Compound 556], the melting point is reported as 195 °C (dec.). `COc1ccnc(C(=O)Nc2ccc(Oc3ccc(C(F)(F)F)cc3)cc2)c1OS(C)(=O)=O` [Compound 723] showed a melting point of 177 to 180 °C. For `COc1ccnc(C(=O)N[C@H]2COC(=O)[C@H](Cc3ccccc3)[C@@H](OC(=O)C(C)C)[C@H](C)OC2=O)c1OC(=O)C(C)C` [Compound 602], the melting point was 160 to 161 °C.
